Structures can show the parent of a compound that is named as a salt.
Biological target: T1, LHRH rat pituitary receptor (Rattus norvegicus, UniProt P30969)
T1 construct: from tissue; host or cells: rat pituitary
T1 sequence (P30969 1-327): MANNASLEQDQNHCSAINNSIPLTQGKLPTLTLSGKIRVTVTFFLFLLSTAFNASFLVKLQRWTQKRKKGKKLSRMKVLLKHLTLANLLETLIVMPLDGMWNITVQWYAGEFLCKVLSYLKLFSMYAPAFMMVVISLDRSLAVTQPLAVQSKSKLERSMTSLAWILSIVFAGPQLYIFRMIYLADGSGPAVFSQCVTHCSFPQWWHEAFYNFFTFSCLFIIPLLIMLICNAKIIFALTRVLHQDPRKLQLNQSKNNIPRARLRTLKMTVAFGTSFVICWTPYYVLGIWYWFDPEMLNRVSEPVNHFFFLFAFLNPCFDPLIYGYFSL
Assay: LHRH rat pituitary receptor binding
Details: Table 2: compounds of formula (VI), by isoquinolinyl moiety R
Method: Representative compounds of the present invention were evaluated in vitro for potency against for LHRH rat pituitary receptor binding [pK, ]. Methods for the assay procedures are 10 described in […] al. J Med. Chem., 32: 2340-2344 (1989). Values of pK, are the negative logarithms of the equilibrium dissociation constant of the particular antagonist test compound for the receptor binding. […] Leuprolide LHRH agonist, disclosed and claimed in U.S. Pat. No. 4,005, 063, has the structure 5-oxo-[…].

SMILES	pKI	Ki [nM]
CC1c2cc(F)c(Cl)cc2CCN1CCCC(CCCNC(=O)CCc1ccc(F)cc1)(c1ccccc1)c1ccccc1 (centres unmarked) [Example 57, 7-[N-3-(4-Fluorophenyl)propionyl]-1-[N-(1,2,3,4-tetrahydro-1-methyl-6-chloro-7-fluoroisoquinolinyl)1-4.4-diphenylheptane hydrochloride]	8.60	–
CC(=O)Oc1cc2c(cc1OC(C)=O)C(C)N(CCCC(CCCNC(=O)CCc1ccc(F)cc1)(c1ccccc1)c1ccccc1)CC2 (centres unmarked) [Example 58, 7-[N-3-(4-Fluorophenyl)propionyl]-1-[N-(1,2,3,4-tetrahydro-1-methYI-6,7-diacetoxyisoquinolinyl)]-4,4-dilhenylheptane]	–	12.3
COc1cc2c(cc1Br)CCN(CCCC(CCCNC(=O)CCc1ccc(F)cc1)(c1ccccc1)c1ccccc1)C2C (centres unmarked) [Example 59, 7-[N-3-(4-Fluorophenyl)propionyl]-1-[N-(1,2,3,4-tetrahydro-1-methyl-6-bromo-7-methoxyisoguinolinyl)]-4,4-diphenylheptane hydrochloride]	–	1.91
COc1cc2c(cc1F)CCN(CCCC(CCCNC(=O)CCc1ccc(F)cc1)(c1ccccc1)c1ccccc1)C2C (centres unmarked) [Example 60, 7-[N-3-(4-Fluorophenyl)propionyl]-1-[N-(1,2,3,4-tetrahydro-1-methyl-6-fluoro-7-methoxyisoguinofinyl)1-4.4-diphenylheptane hydrochloride]	–	1.7
COc1cc2c(cc1Br)C(C)N(CCCC(CCCNC(=O)CCc1ccc(F)cc1)(c1ccccc1)c1ccccc1)CC2 (centres unmarked) [Example 61, 7-[N-3-(4-Fluorophenyl)propionyl]-1-[N-(1,2,3,4-tetrahydro-1-methyl-6-methoxy-7-bromoisoguinolinyl)1-4.4-diphenylheptane hydrochloride]	–	3.72
COc1cc2c(cc1C)CCN(CCCC(CCCNC(=O)CCc1ccc(F)cc1)(c1ccccc1)c1ccccc1)C2C (centres unmarked) [Example 62, 7-[N-3-(4-Fluorophenyl)propionyl]-1-[N-(1,2,3,4-tetrahydro-1.6-dimethyl-7-methoxyisoquinolinyl)1-4.4-diphenylhelptane hydrochloride]	–	0.501
COC(=O)c1cc2c(cc1OC)C(C)N(CCCC(CCCNC(=O)CCc1ccc(F)cc1)(c1ccccc1)c1ccccc1)CC2 (centres unmarked) [Example 63, 7-[N-3-(4-Fluorophenyl)propionyl]-1-[N-(1,2,3,4-tetrahydro-1-methyl-6-carbomethoxy-7-methoxyisoguinolinyl)1-4.4-diphenylhentane hydrochloride]	–	6.76
COc1cc2c(cc1Br)CCN(CCCC(CCCNC(=O)CCc1ccc(F)cc1)(c1ccccc1)c1ccccc1)C2C1CCC1 (stereo not drawn) [Example 64, 7-[N-3-(4-Fluorophenyl)propionyl]amino-1-[N-(1,2,3,4-tetrahydro-1-cyclobutyl-6-bromo-7-methoxyisoquinolinyl)l-4,4-diiphenylheptane hydrochloride]	–	6.03
COc1cc2c(cc1OC)C(C)N(CCCC(CCCNC(=O)CCc1ccc(F)cc1)(c1ccccc1)c1ccccc1)C(C)C2 (centres unmarked) [Example 65, 7-[N-3-(4-Fluorophenyl)propionyl]-1-[N-(1,2,3,4-tetrahydro-1.3-dimethyl-6,7-dimethoxyisoguinolinyl)1-4.4-diphenylheptane hydrochloride]	–	0.0363
COc1cc2c(cc1OC)CN(CCCC(CCCNC(=O)CCc1ccc(F)cc1)(c1ccccc1)c1ccccc1)C(C)C2 (centres unmarked) [Example 66, 7-[N-3-(4-Fluorophenyl)propionyl]-1-[N-(1,2,3,4-tetrahydro-3-mekyl-6,7-dimethoxyisoguinolinyl)]-4,4-diphenylheptane hydrochloride]	–	0.617
COc1cc2c(cc1OC)C(C)(C)N(CCCC(CCCNC(=O)CCc1ccc(F)cc1)(c1ccccc1)c1ccccc1)CC2 [Example 67, 7-[N-3-(4-Fluorophenyl)propionyl]-1-[N-(1,2,3,4-tetrahydro-1.1-dimethyl-6,7-dimethoxyisoguinolinyl)1-4.4-diphenylheptane hydrochloride]	–	2.51
COc1ccc2c(c1)C(C)N(CCCC(CCCNC(=O)CCc1ccc(F)cc1)(c1ccccc1)c1ccccc1)C(C)C2 (centres unmarked) [Example 68, 7-[N-3-(4-Fluorophenyl)propionyl]-1-rN-(1,2,3,4-tetrahydro-1.3-dimethyl-7-methoxyisoquinolinyl)1-4.4-diphenylheiltane hydrochloride]	–	2.51
COc1cc2c(cc1OC)C(C)N(CCCC(CCCNC(=O)CCc1ccc(F)cc1)(c1ccccc1)c1ccccc1)CCC2 (centres unmarked) [Example 69, 7-[N-3-(4-Fluorophenyl)propionyl]-1-[N-(2,3,4,5-tetrahydro-1-methyl-7.8-dimethoxy-I H-2-benzazepinyl)1-4.4-diphenylheptane hydrochloride]	–	12.6

Same assay, conditions: Table 3: compounds of formula (VII), by substituent R'

SMILES	Ki [nM]
COc1cc2c(cc1OC)C(C)N(CCCC(CCCNC(=O)CCc1ccccc1)(c1ccccc1)c1ccccc1)CC2 (centres unmarked) [Example 72]	3.16
COc1cc2c(cc1OC)C(C)N(CCCC(CCCNC(=O)CCc1ccc(Cl)c(Cl)c1)(c1ccccc1)c1ccccc1)CC2 (centres unmarked) [Example 73]	2.19
COc1cc2c(cc1OC)C(C)N(CCCC(CCCNC(=O)CCc1ccc(F)c(Cl)c1)(c1ccccc1)c1ccccc1)CC2 (centres unmarked) [Example 76]	3.98
COc1cc2c(cc1OC)C(C)N(CCCC(CCCNC(=O)CCc1ccc(Cl)cc1)(c1ccccc1)c1ccccc1)CC2 (centres unmarked) [Example 79, 7-[N-3-(4-chlorophenol)propionyl]amino-1-[N-(I .2.3,4-tetrahydro-1-methyl-6,7-dimethoxyisoguinolinyl)1-4,4-diphenylheptane hydrochloride]	0.195

From patent publication US5981521A, “Tetrahydroisoquinoline derivatives as LHRH antagonists” (Abbott Laboratories, priority 1998, dated 1999)
